According to patent publication US7053178B2, “Synthetic peptides and kits for diagnosis of anti-phospholipid syndrome” (Yeda Research Development Co., LTD, priority 1998, dated 2006):
Where no end group is shown, it is not given here.

What was measured:
sera of normal donors = assay: ELISA binding of normal donor sera to biotinylated peptides; design: species or system human; conditions: Normal donors (N = 100)
Method: (§1) Binding of sera from patients with primary APS or secondary to SLE to the studied peptides was performed by ELISA. 96-well ELISA plates were coated with streptavidin, blocked with gelatin, incubated with biotinylated peptides (A,B,C,D) and blocked with gelatin. Sera of patients with APS or SLE were added at dilution of 1:50 and the percent of binding was probed with anti-human IgM or IgG conjugated to alkaline phosphatase. Half plate was coated with streptavidin without addition of peptide (for non-specific binding).

[1] = tested on: affinity purified anti-β2GPI Abs from APS patients; assay: Fractionation of affinity purified anti-β2GPI Abs on peptide columns; format: binding, human
sera of SLE patients = assay: ELISA binding of SLE patient sera to biotinylated peptides; design: species or system human; conditions: SLE patients (N = 72), sera 1:50
Method: as §1

[2] = tested on: sera of mice immunized with β2GPI; assay: ELISA binding of sera of β2GPI-immunized mice to peptides; design: species or system BALB/c mice; conditions: biotinylated peptide monomers on streptavidin plates, anti-mouse IgG
Method: Sera of immunized mice were screened for the presence of mouse antibodies to peptide A, B and C, by ELISA, with streptavidin-coated plates followed by incubation with biotinylated peptide A, B, and C. Blocked plates (3% gelatin) were exposed to different dilutions of the sera. The binding was probed by anti-mouse IgG alkaline phosphatase.
BALB/c mice were immunized (day 0) in the hindfootpads with 10 μg β2GPI in Complete Freund's Adjuvant (CFA), Three weeks after, the mice received a booster injection of β2GPI in PBS. Sera of the mice (anti-β2GPI) were used to screen peptides for the presence of B cell epitopes, as follows: 96-well ELISA plates were coated with streptavidin overnight at 4° C., followed by incubation with biotinylated peptide monomers A, B, C, or D, β2GPI or BSA in PBS (100 μM) for 2 hours at room temperature. The ELISA plates were blocked with 3% gelatin, and the mouse sera were added thereto at different dilutions. Binding was probed with goat anti-mouse IgG alkaline phosphatase.

anti-β2GPI ILA-1 mAb = assay: Competition ELISA: inhibition of ILA-1 mAb binding to β2GPI; design: species or system human; conditions: 10 μM peptide concentration
Method: FIGS. 1A–1C are graphs showing inhibition of the anti-β2GPI ILA-1, ILA-3 and G-3 mAbs binding to β2GPI by competition assays using increasing concentrations of the inhibitory monomer peptides A, B and C, respectively, and of unrelated peptide D as control. The percent of inhibition was calculated as follows: % inhibition=O.D control−O.D with inhibitor/O.D control×100. Each point represents mean±SD of three different experiments.
(e) Inhibition of anti-β2GPI mAb binding to β2GPI by the inhibitory peptides. For competition ELISA tests, the anti-β2GPI mAbs (10 μg/ml) were preincubated (overnight at 4° C.) with varying concentrations of the peptides. The competition reaction was then transferred to β2GPI-coated γ-irradiated ELISA plates (Nunc), and the assay continued as described above. The percentage of inhibition was calculated as follows: % inhibition=O.D control −O.D with inhibitor/O.D control×100.
(2a) The specificity of interaction of the mAbs with the corresponding synthetic peptides A, B, C and control peptide D as monomers, was assessed by inhibition experiments as described in Materials and Methods, sections (e) and (f).

[3] = tested on: affinity purified anti-β2GPI IgM and IgG from APS patients; assay: Competition ELISA: specificity of binding of patient anti-β2GPI IgM and IgG to peptides; design: species or system human; conditions: competition with specific peptide versus cocktail of the other peptides
Method: FIGS. 6A–6C show specificity of binding of affinity purified anti-β2GPI IgM and IgG antibodies from APS patients to the inhibitory monomer peptides A, B and C by ELISA, following preincubation of the tested affinity purified immuno-globulin with or without the peptide or the β2GPI molecule, in fluid phase. FIG. 6A: Affinity purified anti-β2GPI IgM and IgG that recognize peptide A were tested for binding to peptide A following preincubation of the purified antibodies with peptide A, cocktail of peptides B+C+D or β2GPI. Each point represents one patient. FIG. 6B: Affinity purified anti-β2GPI IgM and IgG that recognize peptide B were tested for binding to peptide B following preincubation with peptide B, cocktail of peptides A+C+D or β2GPI. Each point represents one patient. FIG. 6C: Affinity purified anti-β2GPI IgM and IgG that recognize peptide C were tested for binding to peptide C following preincubation with peptide C, cocktail of peptides A+B+D or β2GPI. Each point represents one patient.
The specificity of the recognition of the studied anti-β2GPI epitopes A, B, C by anti-β2GPI Abs from APS patients was confirmed by competition assays in which specificity of binding of anti-β2GPI IgM and IgG from patients with APS to the inhibitory peptides was examined. Anti-β2GPI IgG and IgM affinity purified from APS patients (affinity purification of the antibodies was carried out by incubation of cardiolipin lyposomes with patients' sera overnight at 4° C. with rotation following sedimentation of the complexes (30000 rpm), elution of the bound Abs by KI 1M, extraction from the lyposomes by chloroform, and separation of the total anti-β2GPI IgM, IgG Abs into the different isotypes employing either anti-human-IgM-Sepharose or anti-human-IgG-Sepharose (Pharmacia)) were preincubated with β2GPI (triangles), specific peptide monomer (circles) or a cocktail of the other peptides as monomers (squares), and tested for their binding to the specific biotinylated peptide-coated ELISA plates.

sera of APS patients = assay: ELISA binding of APS patient sera to biotinylated peptides; design: species or system human; conditions: APS patients (N = 43), sera 1:50
Method: ELISA streptavidin-coated plates were incubated with biotinylated A, B or C, control peptide D or cocktail of peptides A+B+C. Following blocking with 5% bovine sera, the patient sera were added at dilution of 1:50. The bound antibodies were detected by administration of anti-human IgG or IgM alkaline phosphatase and appropriate substrate.
as §1

Sequence | Percent of sera recognizing the peptide, IgG (sera of normal donors) [%] | Percent of sera recognizing the peptide, IgM (sera of normal donors) [%] | Fraction of anti-β2GPI Abs (in percentage) recognizing the peptide ([1]; APS patient no. 1) [percentage] | Fraction of anti-β2GPI Abs (in percentage) recognizing the peptide ([1]; APS patient no. 2) [percentage] | Fraction of anti-β2GPI Abs (in percentage) recognizing the peptide ([1]; APS patient no. 3) [percentage] | Fraction of anti-β2GPI Abs (in percentage) recognizing the peptide ([1]; APS patient no. 4) [percentage] | Fraction of anti-β2GPI Abs (in percentage) recognizing the peptide ([1]; APS patient no. 5) [percentage] | Fraction of anti-β2GPI Abs (in percentage) recognizing the peptide ([1]; APS patient no. 6) [percentage] | Fraction of anti-β2GPI Abs (in percentage) recognizing the peptide ([1]; APS patient no. 7) [percentage] | Fraction of anti-β2GPI Abs (in percentage) recognizing the peptide ([1]; APS patient no. 8) [percentage] | Fraction of anti-β2GPI Abs (in percentage) recognizing the peptide ([1]; APS patient no. 9) [percentage] | Fraction of anti-β2GPI Abs (in percentage) recognizing the peptide ([1]; APS patient no. 10) [percentage] | Percent of sera recognizing the peptide, IgG (sera of SLE patients) [%] | Percent of sera recognizing the peptide, IgM (sera of SLE patients) [%] | reaction with antibodies from mice immunized with β2GPI [2] | inhibition of ILA-1 mAb binding to β2GPI (anti-β2GPI ILA-1 mAb) [%] | specificity of recognition of the peptide by anti-β2GPI IgM and IgG from APS patients [3] | Percent of sera recognizing the peptide, IgG (sera of APS patients) [%] | Percent of sera recognizing the peptide, IgM (sera of APS patients) [%] | Percent of sera recognizing the peptide, IgM (sera of APS patients; listed as peptide A) [%]
CATLRVYKGG [Peptide C] | 1 | 0 | 0.4 | 3 | 39 | 22 | 1.8 | 23 | 5 | 4.2 | 0.5 | 16.4 | 2.8 | 14 | reacted specifically | 11 | recognized specifically | 16.3 | 27.9 | –
KDKATFGTHDG [Peptide B] | 0 | 1 | 37 | 15 | 0.5 | 43 | 29 | 14 | 18 | 33 | 1.3 | 7.9 | 11 | 12.5 | reacted specifically | 10 | bind specifically | 20.9 | 25.6 | –
NTLKTPRVGG [Peptide A] | 0 | 2 | 23 | 0.7 | 1.4 | 29 | 0.9 | 29 | 37 | 2.8 | 12 | 0.6 | 5.5 | 11 | reacted specifically | 97 | recognized specifically | 7 | 20.9 | 21
